Experiment: caffeine effect (gPD) parameters of the alertness model for PVT performance
Type: in vivo, human
Conditions: beginning model parameter value (standard error)
Description: In at least one embodiment, the model is as follows: Pc(t)=(S(t)+κC(t))*gPD(t,c) (1) where C and S denote the circadian and homeostatic processes of the two-process model at time t, respectively, and κ represents the circadian amplitude.
M0, k0, z, and ka denote an amplitude slope, a basal elimination rate, a decay constant, and an absorption rate, respectively.

SMILES: Cn1c(=O)c2c(ncn2C)n(C)c1=O [caffeine]
- M0 (amplitude slope) (PVT lapse statistic): 9.86 (1.80) g^−1
- Z (decay constant) (PVT lapse statistic): 1.63 (1.61) g^−1
- k0 (basal elimination rate) (PVT lapse statistic): 0.49 (0.17) h^−1
- M0 (amplitude slope) (PVT mean RT statistic): 3.59 (0.66) g^−1
- Z (decay constant) (PVT mean RT statistic): 1.63 (1.61) g^−1
- k0 (basal elimination rate) (PVT mean RT statistic): 0.49 (0.17) h^−1
- ka (capsule) (absorption rate) (PVT lapse statistic): 2.06 (0.36) h^−1
- ka (capsule) (absorption rate) (PVT mean RT statistic): 2.06 (0.36) h^−1

From US11883194B2, “Method and system for measuring, predicting, and optimizing human cognitive performance” (priority 2015, dated 2024)
